Measurements: patent publication US11708391B2, “Rapaglutins, novel inhibitors of GLUT and use thereof” (The Johns Hopkins University, priority 2016, dated 2023)
Where two headings read alike, the source gives them in different places.

Tests used:
A549 lung cancer cells = assay: alamar blue cell viability assay, A549; format: cell-based, human
Excerpt: FIG. 9. Heat map of the screening results. Scale: 0 (red), complete inhibition; 1 (green), no inhibition. Screening of the rapafucin library for toxicity hits against A549 lung cancer cells using alamar blue assay.
A 45,000 compound and 3000 pool rapafucin library were screened using the alamar blue cell viability assay with the human non-small cell lung cancer (NSCLC) cell line A549. […] Several potent rapafucin hits were discovered to inhibit cell proliferation of A549. […] Each was resynthesized on preparative scale, purified by silica gel chromatography, followed by HPLC purification, and subjected to a series of detailed structure characterization (schemes I and II; FIGS. 10-14).
(§1) Dose-dependent inhibition of cell proliferation by A18 and E11 was next evaluated in several other human cancer cell lines, including breast cancer HCC1954, pancreatic cancer PANC10.05, leukemia Jurkat T and colon cancer RKO (FIGS. 1b and 1c). […] (FIGS. 1 and 9; Table 3)

breast cancer HCC1954 = assay: alamar blue assay, HCC1954; format: cell-based, human
Excerpt: as §1

[1] = test system: pancreatic cancer PANC10.05; assay: alamar blue assay, PANC10.05; format: cell-based, human; details: PANC 10.05
Excerpt: as §1

leukemia Jurkat T = assay: alamar blue assay, Jurkat T; format: cell-based, human
Excerpt: as §1

HeLa = assay: alamar blue assay, HeLa; format: cell-based
Excerpt: as §1

HEK 293T FLAG-Glut3 = assay: alamar blue assay, HEK 293T Glut3 overexpression cells; format: cell-based
Excerpt: FIGS. 20A-20C. E11 is a specific inhibitor of Glut1. (a) Glut1 and Glut3 protein levels of wild type, Glut1 and Glut3 overexpression cells analyzed by western blotting. (b)(c) Inhibition of cell proliferation in HEK293T, Glut1 and Glut3 overexpression cells by A18 and E11.
(§2) Up to now, at least 14 different isoforms of GLUTs have been identified in human cells. It was then asked whether A18 and E11 are specific inhibitors of GLUT1. To answer this question, colon cancer DLD-1 wild type and GLUT1 gene knock out cell lines were chosen as a cell model (FIG. 4a). […] GLUTs that are most relevant to cancer are Glut1 and Glut3. To obtain additional evidence, Glut1 and Glut3 in HEK 293T cells were overexpressed and an alamar blue cell viability assay was performed again. […] (see FIGS. 4, 19, 20, 26; Table 4).

glucose transporters = test system: T1, glucose transporters; assay: 2-deoxy-D-[3H] glucose uptake in A549 cells; format: cell-based, human; details: for inhibition of glucose transport: A549 cells, glucose uptake assay
T1 construct: IC50 uptake of 3H-labeled 3-O-methylglucose; other: A549 cells; compared with 3-O-methylglucose uptake; other: A549 cells treated with drugs for 1 min; other: A549 cells, glucose uptake assay; other
Protocol: FIGS. 2A-2D. Inhibition of Glucose Transport by A18 and E11. (a) Inhibition of 3-O-methyl¬D-[3H] glucose uptake in A549 cells by A18. (b) Inhibition of 3-O-methyl-D-[3H] glucose uptake in A549 cells by E11. (c) Inhibition of 2-deoxy-D-[3H] glucose uptake in A549 […] cells by A18. (d) Inhibition of 2-deoxy-D-[3H] glucose uptake in A549 cells by E11.
FIGS. 16A-16B. Inhibition of Glucose Transport by A18 and E11. Cytochalasin B (10 μM), A18 (3 μM), E11 (3 μM) and DMSO control were used to treated A549 cells for 10 min (a) or 1 min (b), then glucose uptake in the treated cells was measured at 1, 3, 10 and 30 min after the addition of 2-dexoy-D-[^3H] glucose.
Direct action on glucose transporters was measured by monitoring uptake of 3H-labeled 3-O-methylglucose, which is transported by glucose transporters but not metabolized further, allowing the assessment of initial rate of glucose uptake. […] Initial uptake can also be assessed by measuring the uptake of 3H-labeled 2-deoxy-D-glucose, which gets into the cell through glucose transporters and is phosphorylated by hexokinase but cannot be metabolized further due to the lack of oxygen at the second position.

DLD-1 wild type = assay: alamar blue cell viability assay, DLD-1 wild type; format: cell-based
Excerpt: FIGS. 19A-19C. E11 is a specific inhibitor of Glut1. (a)(b) Inhibition of cell proliferation in A549, DLD-1 wild type and Glut1 knock out cells by A18 and E11. (c) Potency of A18 and E11 against the alamar blue assay in A549, DLD-1 wild type and Glut1 knock out cells.
as §2

GLUT1 = target: T2, GLUT1 (Homo sapiens, UniProt P11166); assay: pulldown with biotin-rapafucin conjugates from RBC-derived ghosts lysate, anti-GLUT1 Western blot; format: binding; details: for binding to GLUT1 in pulldown assay: RBC-derived ghosts cell lysate, Western blot; for competition of the binding of the other rapafucin's probe to GLUT1: pulldown, A18 probe versus E11 and vice versa
T2 construct: endogenous in cells; host or cells: erythrocyte (RBC-derived) ghosts
T2 sequence (P11166 1-492): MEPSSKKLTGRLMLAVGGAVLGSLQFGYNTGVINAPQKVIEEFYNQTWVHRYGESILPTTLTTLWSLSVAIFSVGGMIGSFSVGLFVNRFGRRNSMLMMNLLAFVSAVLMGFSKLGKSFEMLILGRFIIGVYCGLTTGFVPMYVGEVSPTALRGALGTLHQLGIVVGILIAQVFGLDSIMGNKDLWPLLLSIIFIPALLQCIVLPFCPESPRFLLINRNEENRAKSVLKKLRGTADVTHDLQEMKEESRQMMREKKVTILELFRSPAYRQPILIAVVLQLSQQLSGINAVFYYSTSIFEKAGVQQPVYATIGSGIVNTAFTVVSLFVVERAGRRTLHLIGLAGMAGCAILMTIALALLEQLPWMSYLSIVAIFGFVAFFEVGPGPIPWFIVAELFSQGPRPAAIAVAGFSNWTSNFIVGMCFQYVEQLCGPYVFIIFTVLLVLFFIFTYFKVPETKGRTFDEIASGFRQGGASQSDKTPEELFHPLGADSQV
Excerpt: FIGS. 6A-6B. Identification of direct interaction of A18 and E11 to Glut1. Glut1 protein levels of A18 (a) or E11 (b) pull down samples analyzed by western blotting.
After showing that GLUT1 was very likely to be the target of A18 and E11, the direct interaction of A18 and E11 to GLUT1 was then examined. A series of biotin or diazrine-alkyne rapafucin conjugates through different positions were synthesized. […] Importantly, the binding of the biotin-rapafucin probe to GLUT1 is competed by rapafucin. […] (FIGS. 6, 21, 22 and 27)

ERK, AKT or JNK = assay: Western blot, phosphorylation of ERK, AKT or JNK; format: cell-based
Excerpt: Whether A18 and E11 treatment affect key cell growth signaling proteins was examined next. […] But it has no effects on the phosphorylation of ERK, AKT or JNK (FIG. 7). As previously reported, AMPK is likely to act as the key link between the ATP reduction and the subsequent cancer cell inhibition. (FIGS. 7 and 23-25). Based on the data reported here, the working model for A18 and E11 was proposed as outlined in FIG. 8. […] These led to upregulation of phosphorylation of AMPK and downregulation of phosphorylation of S6K. […] (FIG. 8)

## CC[C@@H](C)[C@H]1C(=O)NCC(=O)N(C)CC/C=C/C(=O)OCC(C)(C)C(=O)C(=O)N2CCCC[C@H]2C(=O)O[C@H](CCc2ccc(OC)c(OC)c2)c2cccc(c2)NC(=O)CCC(=O)N(C)[C@@H](CC(C)C)C(=O)N[C@H](Cc2ccccc2)C(=O)N1C [A18]
A549 lung cancer cells; Homo sapiens
  IC50: 189 nM
Breast cancer HCC1954; Homo sapiens
  IC50: 109 nM
[1]; Homo sapiens, Panc1005
  IC50: 119 nM
Leukemia Jurkat T; Homo sapiens
  IC50: 132 nM
HeLa; Homo sapiens
  IC50: 281 nM
HEK 293T FLAG-Glut3; Homo sapiens, HEK 293T FLAG-Glut3
  IC50: 2350 nM
Glucose transporters
  inhibition of glucose transport: significantly inhibit
DLD-1 wild type
  inhibition of cell proliferation, alamar blue: strongly inhibited
GLUT1
  binding to GLUT1 in pulldown assay: can bind directly to GLUT1
  competition of the binding of the other rapafucin's probe to GLUT1: vice versa
ERK, AKT or JNK
  phosphorylation of ERK, AKT or JNK: no effects

## Gly-^MSerBu-Nal-^MAla [E11]
A549 lung cancer cells
  IC50: 367 nM
Breast cancer HCC1954
  IC50: 159 nM
[1]
  IC50: 79.8 nM
Leukemia Jurkat T
  IC50: 251 nM
HeLa
  IC50: 383 nM
HEK 293T FLAG-Glut3; GLUT3 overexpression HEK 293T cells
  inhibition in alamar blue cell viability assay: didn't show any inhibition
HEK 293T FLAG-Glut3; HEK 293T FLAG-Glut3
  IC50 alamar blue assay: No activity
Glucose transporters; A549 cells treated with drugs for 1 min
  glucose uptake inhibition: 50%
Glucose transporters
  inhibition of glucose transport: significantly inhibit
DLD-1 wild type
  inhibition of cell proliferation, alamar blue: kept inhibitory activity
GLUT1
  binding to GLUT1 in pulldown assay: can bind directly to GLUT1
  competition of the binding of the other rapafucin's probe to GLUT1: cannot be competed
ERK, AKT or JNK
  phosphorylation of ERK, AKT or JNK: no effects
